Experimental data from patent US10927221B2, “Dendrimeric metallacrowns” (THE REGENTS OF THE UNIVERSITY OF MICHIGAN, priority 2018, dated 2021).

Columns and labels:
Luminescence lifetimes = assay type: physicochemical
Description: (§1) Quantitative parameters, i.e. absolute quantum yields under excitation at 320 nm to 340 nm and luminescence lifetimes, have been determined for the Ga8Yb2(Shi)8(MIP)4 metallacrown and Ga8Ln2 G:−0.5 polyamidoamine MC-cored dendrimers (Ln=Yb, Tb, Sm) (Table 1).
(§2) In Table 1, luminescence lifetimes (λex=355 nm) and quantum yields (λex=340 nm for samples in the solid state and λex=320 for solutions) of the Ga8Yb2(Shi)8(MIP)4 dimeric metallacrown, Ga8Ln2 G:−0.5 polyamidoamine MC-cored dendrimers (Ln=Yb, Tb, Sm) (i.e., Ga8Ln2(Shi)8(MIP)4(G:−0.5 PAMAM)4) and Ga8Yb2 G:0.5 polyamidoamine MC-cored dendrimers at room temperature (2σ values are given between parentheses) are presented. For bi-exponetial luminescence lifetimes results, values after the colon indicate the fraction contribution of the individual lifetimes to the experimental luminescence decay.
(§3) Quantitative parameters, i.e. absolute quantum yields under excitation at 350 nm (for samples in the solid state) or 325 nm (for samples in solution) and luminescence lifetimes (under excitation at 355 nm), have been determined for each of the Ga8Y2(shi)8(mip)4 G:0 polyamidoamine MC-cored dendrimer, the Ga8Y2(shi)8(mip)4 G:0 AA-capped polyamidoamine MC-cored dendrimer, and the Ga8Y2(shi)8(mip)4 G:0.5 polyamidoamine MC-cored dendrimer at room temperature. In Table 2, the 2σ values are given between parentheses. For bi-exponetial luminescence lifetimes results, values after the colon indicate the fraction contribution of the individual lifetimes to the experimental luminescence decay.

Absolute quantum yields [1] = assay type: physicochemical
Description: as §1, §2, §3

[2] = Solution state (UV-Vis) absorbance; assay type: physicochemical; details: approximately 2 μM to 3 μM methanol solutions; room temperature
Experimental: The solution state (UV-Vis) absorbance of the Sm-shi8 and the Sm-e8, Sm-m4, Smbt8 and Sm-te4 analogs was measured in approximately 2 μM to 3 μM methanol solutions at room temperature. The absorbance spectrum for each analog shown in FIG. 29 has a π-π* transition band with λmax of approximately 315 nm (31,750 cm^−1) or 335 nm (29,850 cm^−1). This π-π* transition was red-shifted by close to 25 nm from Sm-shi8 in the case of Sm-e8 and Sm-bt8.

HeLa cells = assay: Epifluorescence imaging with HeLa cells; assay type: cell-based; details: 3 hours, λex 377 nm band pass 50 nm
Experimental: FIG. 21 depicts epifluorescence microscopy images (reproduced in black and white) obtained on HeLa cells, (Top) after incubation with a 30 μM solution of Ga8Tb2(shi)8(MIP)4 G:−0.5 polyamidoamine MC-cored dendrimer for 3 hours (λex: 377 nm, band pass 50 nm; λem: 536 nm, band pass 40 nm, 1 s of exposure) and (Bottom) untreated (control) cells. A: brightfield, B: visible emission, and C: merged image (Objective 63×);
FIG. 22 depicts epifluorescence microscopy images (reproduced in black and white) obtained on HeLa cells, (Top) after incubation with a 100 μM solution of the Ga8Yb2(shi)8(MIP)4 G:−0.5 polyamidoamine MC-cored dendrimer for 3 hours (λex: 377 nm, band pass 50 nm; λem: long pass 805 nm, 40 s of exposure), and (Bottom) untreated (control) cells. A: brightfield, B: visible emission, and C: merged image (Objective 63×);
To test if synthesized MC-cored dendrimers could be used under biological conditions and maintain the luminescence signal, HeLa cells were incubated with the Tb(III) and Yb(III) G:−0.5 polyamidoamine MC-cored dendrimers (Ga8Tb2 G:−0.5 polyamidoamine MC-cored dendrimers and Ga8Yb2 G:−0.5 polyamidoamine MC-cored dendrimers). The metallacrown complexes coated the surfaces of the cells. For a control, HeLa cells were not incubated and were imaged in a similar manner. […]

Absolute quantum yields [3] = assay type: physicochemical; details: aqueous solution
[4] = H2O/DMSO (96/4), 1 mg/mL, excitation at 355 nm, room temperature (Table 2)
[5] = Solid, excitation at 355 nm, room temperature (Table 2)
[6] = H2O/DMSO (96/4), 1 mg/mL, excitation at 325 nm, room temperature (Table 2)
[7] = Solid, excitation at 350 nm, room temperature (Table 2)
[8] = Solid, λex=355 nm, room temperature, 2σ in parentheses (Table 1)
[9] = Solid, λex=340 nm, room temperature (Table 1)
[10] = 200 μM H2O/DMSO (4%), λex=355 nm, room temperature (Table 1), longer lifetime component
[11] = 200 μM H2O/DMSO (4%), λex=355 nm, room temperature (Table 1), shorter lifetime component
[12] = 200 μM H2O/DMSO (4%), λex=320 nm, room temperature (Table 1)
[13] = 200 μM H2O/DMSO (4%), λex=355 nm, room temperature (Table 1)

In the case of “Ga8Yb2(shi)8(MIP)4 G:0 polyamidoamine MC-cored dendrimer [Ga8Yb2 G:0]”, the Lifetime (Luminescence lifetimes; [4]) was 9.93(8) μs, the Lifetime (Luminescence lifetimes; [5]) was 36.3(1) μs and the Quantum yield (Absolute quantum yields [1]; [6]) was 0.53(1) %. For the same substance, the Quantum yield (Absolute quantum yields [1]; [7]) was 2.40(2) %.

With “Ga8Yb2(shi)8(MIP)4 G:0.5 polyamidoamine MC-cored dendrimer [Ga8Yb2 Gen: 0.5]” the Lifetime (Luminescence lifetimes; [4]) was 11.1(1) μs, the Lifetime (Luminescence lifetimes; [5]) was 46.3(1) μs and the Lifetime (Luminescence lifetimes; [8]) was 28.2(3) μs. For the same substance, the Quantum yield (Absolute quantum yields [1]; [6]) was 0.63(1) %, the Quantum yield (Absolute quantum yields [1]; [7]) was 2.83(9) % and the Quantum yield (Absolute quantum yields [1]; [9]) was 1.82(1) %.

For Sm2Ga8(shi)8(miph)4 [Sm-m4], the “red-shift of π-π* transition band from Sm-shi8” value [2] was “no notable redshift”.

In the case of Ga8Yb2(Shi)8(MIP)4, the “fraction contribution of the individual lifetime to the experimental luminescence decay” value (shortened to “fraction contribution”) (Luminescence lifetimes; [10]) was 97.5(3) %, the “fraction contribution” value (Luminescence lifetimes; [11]) was 2.5(3) % and the Quantum yield (Absolute quantum yields [1]; [12]) was 9.01(7) · 10^−2%. The Quantum yield (Absolute quantum yields [1]; [9]) was 0.126(3) %.

In the case of “Ga8Tb2(shi)8(MIP)4 G:−0.5 polyamidoamine MC-cored dendrimer [Ga8Tb2 Gen: −0.5]”, the “fraction contribution” value (Luminescence lifetimes; [10]) was 89.7(8) %, the “fraction contribution” value (Luminescence lifetimes; [11]) was 10.3(8) % and the Quantum yield (Absolute quantum yields [1]; [12]) was 6.1(3) %. For the same substance, the Quantum yield (Absolute quantum yields [1]; [9]) was 11.9(3) % and the “luminescence signal on epifluorescence microscope, visible range” value (HeLa cells; 30 μM, 536 nm emission, 40 nm filter, 1 s exposure) was “good quality signals were observed in the visible range”.

In the case of Sm2Ga8(eshi)8(ip)4 [Sm-e8], the “red-shift of π-π* transition band from Sm-shi8” value [2] was roughly 25 nm.

With “Ga8Sm2(shi)8(MIP)4G:−0.5 PAMAM metallacrown (MC)-cored dendrimer [Ga8Sm2 Gen: −0.5]” the Lifetime (Luminescence lifetimes; [13]) was 96.2(9) μs, the Lifetime (Luminescence lifetimes; [8]) was 112(1) μs and the Quantum yield (Absolute quantum yields [1]; [12]) was 1.1(1) %. The Quantum yield (Absolute quantum yields [1]; [9]) was 2.31(2) %.

In the case of “Ga8Yb2(shi)8(MIP)4 G:−0.5 polyamidoamine MC-cored dendrimer [Ga8Yb2 Gen: −0.5]”, the Lifetime (Luminescence lifetimes; [13]) was 13.(1) μs, the Lifetime (Luminescence lifetimes; [8]) was 35.3(6) μs and the Quantum yield (Absolute quantum yields [1]; [12]) was 0.868(9) %. The Quantum yield (Absolute quantum yields [1]; 200 μM H2O/DMSO (4%), λex=320 nm, room temperature (Table 1), listed as Ga8Yb2 G:−0.5 polyamidoamine MC-cored dendrimer) was 0.868%, the Quantum yield (Absolute quantum yields [1]; [9]) was 3.24(9) % and the “luminescence signal on epifluorescence microscope, NIR range” value (HeLa cells; 100 μM, >805 nm emission, 40 s exposure) was “good quality signals were observed in the NIR range”. For the same substance, the “improvement of quantum yield compared to YnZn16 MCs assembled with pyrazinehydroxamic acid” value (Absolute quantum yields [3]) was greater than 77 times.
